How the values were obtained:
Format in all cases: functional
Escherichia coli [1] = experiment: Antimicrobial activity against Escherichia coli isolate GZ3 transconjugant harboring 16S rRNA methylase RmtB and qepA by agar dilution method relative to recipient strain
Escherichia coli [2] = experiment: Antimicrobial activity against Escherichia coli isolate GZ4 transconjugant harboring 16S rRNA methylase RmtB and qepA by agar dilution method relative to recipient strain
Escherichia coli [3] = experiment: Antimicrobial activity against Escherichia coli isolate GZ5 transconjugant harboring 16S rRNA methylase RmtB and qepA by agar dilution method relative to recipient strain
Escherichia coli [4] = experiment: Antimicrobial activity against Escherichia coli isolate GZ6 transconjugant harboring 16S rRNA methylase RmtB and qepA by agar dilution method relative to recipient strain
Escherichia coli [5] = experiment: Antimicrobial activity against Escherichia coli isolate GZ8 transconjugant harboring 16S rRNA methylase RmtB and qepA by agar dilution method relative to recipient strain
Escherichia coli [6] = experiment: Antimicrobial activity against Escherichia coli isolate GZ9 transconjugant harboring 16S rRNA methylase RmtB and qepA by agar dilution method relative to recipient strain
Escherichia coli [7] = experiment: Antimicrobial activity against Escherichia coli isolate GZ11 transconjugant harboring 16S rRNA methylase RmtB and qepA by agar dilution method relative to recipient strain
Escherichia coli [8] = experiment: Antimicrobial activity against Escherichia coli isolate GZ12 transconjugant harboring 16S rRNA methylase RmtB and qepA by agar dilution method relative to recipient strain
Escherichia coli [9] = experiment: Antimicrobial activity against Escherichia coli isolate GZ13 transconjugant harboring 16S rRNA methylase RmtB and qepA by agar dilution method relative to recipient strain
Escherichia coli [10] = experiment: Antimicrobial activity against Escherichia coli isolate GZ14 transconjugant harboring 16S rRNA methylase RmtB and qepA by agar dilution method relative to recipient strain
Escherichia coli [11] = experiment: Antimicrobial activity against Escherichia coli isolate GZ15 transconjugant harboring 16S rRNA methylase RmtB and qepA by agar dilution method relative to recipient strain
Escherichia coli [12] = experiment: Antimicrobial activity against Escherichia coli isolate GZ16 transconjugant harboring 16S rRNA methylase RmtB and qepA by agar dilution method relative to recipient strain
Escherichia coli [13] = experiment: Antimicrobial activity against Escherichia coli isolate CQ15 transconjugant harboring 16S rRNA methylase RmtB and qepA by agar dilution method relative to recipient strain
Escherichia coli [14] = experiment: Antimicrobial activity against Escherichia coli isolate CQ18 transconjugant harboring 16S rRNA methylase RmtB and qepA by agar dilution method relative to recipient strain
Escherichia coli [15] = experiment: Antimicrobial activity against Escherichia coli isolate CQ2 transconjugant harboring 16S rRNA methylase RmtB and qepA by agar dilution method relative to recipient strain
Escherichia coli [16] = experiment: Antimicrobial activity against Escherichia coli isolate CQ5 transconjugant harboring 16S rRNA methylase RmtB and qepA by agar dilution method relative to recipient strain
Escherichia coli [17] = experiment: Antimicrobial activity against Escherichia coli isolate CQ4 transconjugant harboring 16S rRNA methylase RmtB and qepA by agar dilution method relative to recipient strain
Escherichia coli [18] = experiment: Antimicrobial activity against Escherichia coli isolate CQ20 transconjugant harboring 16S rRNA methylase RmtB and qepA by agar dilution method relative to recipient strain
Escherichia coli [19] = experiment: Antimicrobial activity against Escherichia coli isolate CQ26 transconjugant harboring 16S rRNA methylase RmtB and qepA by agar dilution method relative to recipient strain
Escherichia coli [20] = experiment: Antimicrobial activity against Escherichia coli isolate CQ10 transconjugant harboring 16S rRNA methylase RmtB and qepA by agar dilution method relative to recipient strain
Escherichia coli [21] = experiment: Antimicrobial activity against Escherichia coli isolate CQ14 transconjugant harboring 16S rRNA methylase RmtB and qepA by agar dilution method relative to recipient strain
Escherichia coli [22] = experiment: Antimicrobial activity against Escherichia coli isolate GZ7 transconjugant harboring 16S rRNA methylase RmtB and qepA and qnrS1 by agar dilution method relative to recipient strain
Escherichia coli [23] = experiment: Antimicrobial activity against Escherichia coli isolate GZ1 transconjugant harboring 16S rRNA methylase RmtB and qnrS1 by agar dilution method relative to recipient strain
Escherichia coli [24] = experiment: Antimicrobial activity against Escherichia coli isolate GZ2 transconjugant harboring 16S rRNA methylase RmtB and qnrS1 by agar dilution method relative to recipient strain
Escherichia coli [25] = experiment: Antimicrobial activity against Escherichia coli isolate CQ22 transconjugant harboring 16S rRNA methylase RmtB and qnrS1 by agar dilution method relative to recipient strain
Escherichia coli [26] = experiment: Antimicrobial activity against Escherichia coli isolate CQ13 transconjugant harboring 16S rRNA methylase RmtB and qnrS1 by agar dilution method relative to recipient strain
Escherichia coli [27] = experiment: Antimicrobial activity against Escherichia coli isolate CQ6 transconjugant harboring 16S rRNA methylase RmtB and qepA, qnrS2, aac(6')-Ib-cr gene by agar dilution method relative to recipient strain
Escherichia coli [28] = experiment: Antimicrobial activity against Escherichia coli isolate CQ7 transconjugant harboring 16S rRNA methylase RmtB and qepA, qnrS2, aac(6')-Ib-cr gene by agar dilution method relative to recipient strain
Escherichia coli [29] = experiment: Antimicrobial activity against Escherichia coli isolate CQ12 transconjugant harboring 16S rRNA methylase RmtB and qepA, qnrS2, aac(6')-Ib-cr gene by agar dilution method relative to recipient strain
Escherichia coli [30] = experiment: Antimicrobial activity against Escherichia coli isolate CQ16 transconjugant harboring 16S rRNA methylase RmtB and qepA, qnrS2, aac(6')-Ib-cr gene by agar dilution method relative to recipient strain
Escherichia coli [31] = experiment: Antimicrobial activity against Escherichia coli isolate GZ10 transconjugant harboring 16S rRNA methylase RmtB and qepA, aac(6')-Ib-cr gene by agar dilution method relative to recipient strain
Escherichia coli [32] = experiment: Antimicrobial activity against Escherichia coli isolate CQ19 transconjugant harboring 16S rRNA methylase RmtB and qepA, aac(6')-Ib-cr gene by agar dilution method relative to recipient strain
Escherichia coli [33] = experiment: Antimicrobial activity against Escherichia coli isolate CQ1 transconjugant harboring 16S rRNA methylase RmtB and qnrB6 by agar dilution method relative to recipient strain

SMILES	fold change (FC) (Escherichia coli [1])	fold change (FC) (Escherichia coli [2])	fold change (FC) (Escherichia coli [3])	fold change (FC) (Escherichia coli [4])	fold change (FC) (Escherichia coli [5])	fold change (FC) (Escherichia coli [6])	fold change (FC) (Escherichia coli [7])	fold change (FC) (Escherichia coli [8])	fold change (FC) (Escherichia coli [9])	fold change (FC) (Escherichia coli [10])	fold change (FC) (Escherichia coli [11])	fold change (FC) (Escherichia coli [12])	fold change (FC) (Escherichia coli [13])	fold change (FC) (Escherichia coli [14])	fold change (FC) (Escherichia coli [15])	fold change (FC) (Escherichia coli [16])	fold change (FC) (Escherichia coli [17])	fold change (FC) (Escherichia coli [18])	fold change (FC) (Escherichia coli [19])	fold change (FC) (Escherichia coli [20])	further results
CCn1cc(C(=O)O)c(=O)c2cc(F)c(N3CCNCC3)cc21 [NORFLOXACIN]	16	4	16	8	8	16	4	16	8	16	4	8	8	8	16	16	2	4	4	32	fold change (FC) (Escherichia coli [21]): 32; fold change (FC) (Escherichia coli [22]): 16; fold change (FC) (Escherichia coli [23]): 16; fold change (FC) (Escherichia coli [24]): 2; fold change (FC) (Escherichia coli [25]): 2; fold change (FC) (Escherichia coli [26]): 4; fold change (FC) (Escherichia coli [27]): 16; fold change (FC) (Escherichia coli [28]): 16; fold change (FC) (Escherichia coli [29]): 16; fold change (FC) (Escherichia coli [30]): 16; fold change (FC) (Escherichia coli [31]): 16; fold change (FC) (Escherichia coli [32]): 16; fold change (FC) (Escherichia coli [33]): 2
C[C@H]1COc2c(N3CCN(C)CC3)c(F)cc3c(=O)c(C(=O)O)cn1c23.C[C@H]1COc2c(N3CCN(C)CC3)c(F)cc3c(=O)c(C(=O)O)cn1c23.O [LEVOFLOXACIN]	2	2	2	4	1	2	2	8	2	4	2	4	1	1	4	1	1	2	1	2	fold change (FC) (Escherichia coli [21]): 2; fold change (FC) (Escherichia coli [22]): 1; fold change (FC) (Escherichia coli [23]): 4; fold change (FC) (Escherichia coli [24]): 2; fold change (FC) (Escherichia coli [25]): 1; fold change (FC) (Escherichia coli [26]): 4; fold change (FC) (Escherichia coli [27]): 4; fold change (FC) (Escherichia coli [28]): 1; fold change (FC) (Escherichia coli [29]): 2; fold change (FC) (Escherichia coli [30]): 2; fold change (FC) (Escherichia coli [31]): 4; fold change (FC) (Escherichia coli [32]): 1; fold change (FC) (Escherichia coli [33]): 1
CCn1cc(C(=O)O)c(=O)c2ccc(C)nc21 [NALIDIXIC ACID]	8	2	1	1	4	4	2	1	4	1	1	2	1	1	1	1	2	1	1	1	fold change (FC) (Escherichia coli [21]): 1; fold change (FC) (Escherichia coli [22]): 16; fold change (FC) (Escherichia coli [23]): 4; fold change (FC) (Escherichia coli [24]): 4; fold change (FC) (Escherichia coli [25]): 1; fold change (FC) (Escherichia coli [26]): 4; fold change (FC) (Escherichia coli [27]): 16; fold change (FC) (Escherichia coli [28]): 1; fold change (FC) (Escherichia coli [29]): 1; fold change (FC) (Escherichia coli [30]): 2; fold change (FC) (Escherichia coli [31]): 16; fold change (FC) (Escherichia coli [32]): 1; fold change (FC) (Escherichia coli [33]): 2

Reference: ChEMBL document CHEMBL1671858, “Coprevalence of plasmid-mediated quinolone resistance determinants QepA, Qnr, and AAC(6')-Ib-cr among 16S rRNA methylase RmtB-producing Escherichia coli isolates from pigs” (2008)
